Assay [1] has as its target T1, wild-type EGFR (Homo sapiens, UniProt P00533).
T1 construct: purchased Signalchem
The assay can be described thus: Enzymology experiment in vitro (HTRF/FRET kinase activity), wild-type EGFR. Type of assay: biochemical. To be noted: HTRF KinEASE-TK, read-out: EGFR (WT) IC50. The protocol:
1. Experimental Materials
HTRF KinEASE-TK kit detection reagent, purchased from Cisbio
1) 10 nL of gradient diluted compound was transferred into a 384-well experimental plate using Echo 550 (Labcyte).
2) 5 μL of 2×EGFR enzyme solution was added to the 384-well experimental plate and incubated at room temperature for 10 minutes.
3) 5 μL of 2× substrate solution containing polypeptide and ATP was added to the 384-well experimental plate and incubated at room temperature for 40 minutes.
4) 10 μL of detection solution containing EDTA, XL665-labeled streptavidin and Eu^3+-labeled antibody was added thereto and incubated at room temperature for 1 hour.

For assay [2], the target named is T2, L858R/T790M/C797S triple mutant EGFR (Homo sapiens, UniProt P00533, C797S/L858R/T790M).
T2 construct: purchased Signalchem
Briefly: Enzymology experiment in vitro (HTRF/FRET kinase activity), L858R/T790M/C797S triple mutant EGFR. To be noted: HTRF KinEASE-TK, read-out: EGFR (L858R/T790M/C797S) IC50. It counts as biochemical. A digest of the protocol:
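Kinase reaction run 40 min at room temperature with peptide and ATP after a 10 min compound–enzyme preincubation. Phosphorylation read as HTRF signal after 1 h with Eu³⁺ antibody, XL665-streptavidin and EDTA (Cisbio KinEASE-TK).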

Assay [3] has as its system EGFR wild-type cell line A431. The assay can be described thus: Cell proliferation inhibition experiment (CellTiter-Glo), A431. Type of assay: cell-based. To be noted: Homo sapiens, A-431, 72 h, A431 cells, Cell Titer-Glo, read-out: A431 EGFR WT IC50. In outline: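 Luminescent CellTiter-Glo readout, 30 min at room temperature, after 72 h compound exposure at 37° C., 5% CO2 with 0.1% DMSO final. EGFR wild-type A431 cells were seeded at 800 per well and grown 24 h before dosing. IC50 derived from the dose-response.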
A general note: In ATP-based viability assays light output follows the ATP content of the culture.

The target in assay [4] is Ba/F3 De119/T790M/C797S EGFR triple mutant cell line (Homo sapiens, UniProt P00533, T790M/C797S, cells depend on it, form not given). The assay can be described thus: Cell proliferation inhibition experiment (CellTiter-Glo), Ba/F3 De119/T790M/C797S. To be noted: Ba/F3 Del19/T790M/C797S EGFR triple mutant cells, 72 hours, Cell Titer-Glo; read-out: Ba/F3 (Del19/T790M/C797S) IC50. Type of assay: cell-based.

The target of assay [5] is Ba/F3 L858R/T790M/C797S EGFR triple mutant cell line (Homo sapiens, UniProt P00533, T790M/C797S/L858R, cells depend on it). Briefly: Cell proliferation inhibition experiment (CellTiter-Glo), Ba/F3 L858R/T790M/C797S. It counts as cell-based. To be noted: 72 hours, Cell Titer-Glo, read-out: Ba/F3 (L858R/T790M/C797S) IC50.

Results on 22 molecules are retold here after patent US20230219986A1, “NOVEL AMINOPYRIMIDINE EGFR INHIBITOR” (QILU PHARMACEUTICAL CO., LTD., priority 2020, published 2023).

SMILES strings stand for the structures.

Chain of Ba/F3 L858R/T790M/C797S EGFR triple mutant cell line (P00533 whole entry T790M/C797S/L858R): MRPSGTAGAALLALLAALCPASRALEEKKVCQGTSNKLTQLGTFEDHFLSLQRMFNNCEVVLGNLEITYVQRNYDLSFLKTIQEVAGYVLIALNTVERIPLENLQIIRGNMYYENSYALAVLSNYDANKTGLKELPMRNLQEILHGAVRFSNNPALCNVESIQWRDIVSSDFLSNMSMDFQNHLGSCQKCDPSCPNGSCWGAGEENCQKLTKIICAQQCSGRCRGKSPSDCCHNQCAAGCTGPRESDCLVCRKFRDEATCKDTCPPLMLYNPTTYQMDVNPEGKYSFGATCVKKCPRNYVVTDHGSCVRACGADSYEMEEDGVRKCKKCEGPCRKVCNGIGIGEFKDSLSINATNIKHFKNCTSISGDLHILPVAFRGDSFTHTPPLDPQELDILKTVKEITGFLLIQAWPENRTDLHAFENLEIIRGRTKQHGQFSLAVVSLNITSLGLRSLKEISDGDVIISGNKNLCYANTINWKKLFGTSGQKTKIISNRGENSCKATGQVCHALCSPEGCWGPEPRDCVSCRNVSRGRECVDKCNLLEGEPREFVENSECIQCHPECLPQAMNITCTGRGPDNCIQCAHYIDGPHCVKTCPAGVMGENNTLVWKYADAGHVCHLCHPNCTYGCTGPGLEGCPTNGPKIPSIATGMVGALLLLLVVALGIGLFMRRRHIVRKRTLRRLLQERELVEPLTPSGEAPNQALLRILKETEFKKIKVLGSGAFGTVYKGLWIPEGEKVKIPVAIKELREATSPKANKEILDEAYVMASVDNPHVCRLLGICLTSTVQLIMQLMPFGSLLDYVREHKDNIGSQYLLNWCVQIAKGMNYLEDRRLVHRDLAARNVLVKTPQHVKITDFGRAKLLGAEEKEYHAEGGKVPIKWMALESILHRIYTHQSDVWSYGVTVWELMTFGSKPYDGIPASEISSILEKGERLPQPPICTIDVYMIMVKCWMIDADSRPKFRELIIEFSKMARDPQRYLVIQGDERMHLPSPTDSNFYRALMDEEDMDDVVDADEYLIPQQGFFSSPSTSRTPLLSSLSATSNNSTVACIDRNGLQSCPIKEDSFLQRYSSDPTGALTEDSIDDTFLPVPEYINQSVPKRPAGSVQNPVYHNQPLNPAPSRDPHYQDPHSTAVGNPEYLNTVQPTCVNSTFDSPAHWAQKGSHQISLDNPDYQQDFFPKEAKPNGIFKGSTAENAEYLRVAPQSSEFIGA
Chain of Ba/F3 De119/T790M/C797S EGFR triple mutant cell line (P00533 with tags, fused parts or gaps DEL746-750/T790M/C797S, form open): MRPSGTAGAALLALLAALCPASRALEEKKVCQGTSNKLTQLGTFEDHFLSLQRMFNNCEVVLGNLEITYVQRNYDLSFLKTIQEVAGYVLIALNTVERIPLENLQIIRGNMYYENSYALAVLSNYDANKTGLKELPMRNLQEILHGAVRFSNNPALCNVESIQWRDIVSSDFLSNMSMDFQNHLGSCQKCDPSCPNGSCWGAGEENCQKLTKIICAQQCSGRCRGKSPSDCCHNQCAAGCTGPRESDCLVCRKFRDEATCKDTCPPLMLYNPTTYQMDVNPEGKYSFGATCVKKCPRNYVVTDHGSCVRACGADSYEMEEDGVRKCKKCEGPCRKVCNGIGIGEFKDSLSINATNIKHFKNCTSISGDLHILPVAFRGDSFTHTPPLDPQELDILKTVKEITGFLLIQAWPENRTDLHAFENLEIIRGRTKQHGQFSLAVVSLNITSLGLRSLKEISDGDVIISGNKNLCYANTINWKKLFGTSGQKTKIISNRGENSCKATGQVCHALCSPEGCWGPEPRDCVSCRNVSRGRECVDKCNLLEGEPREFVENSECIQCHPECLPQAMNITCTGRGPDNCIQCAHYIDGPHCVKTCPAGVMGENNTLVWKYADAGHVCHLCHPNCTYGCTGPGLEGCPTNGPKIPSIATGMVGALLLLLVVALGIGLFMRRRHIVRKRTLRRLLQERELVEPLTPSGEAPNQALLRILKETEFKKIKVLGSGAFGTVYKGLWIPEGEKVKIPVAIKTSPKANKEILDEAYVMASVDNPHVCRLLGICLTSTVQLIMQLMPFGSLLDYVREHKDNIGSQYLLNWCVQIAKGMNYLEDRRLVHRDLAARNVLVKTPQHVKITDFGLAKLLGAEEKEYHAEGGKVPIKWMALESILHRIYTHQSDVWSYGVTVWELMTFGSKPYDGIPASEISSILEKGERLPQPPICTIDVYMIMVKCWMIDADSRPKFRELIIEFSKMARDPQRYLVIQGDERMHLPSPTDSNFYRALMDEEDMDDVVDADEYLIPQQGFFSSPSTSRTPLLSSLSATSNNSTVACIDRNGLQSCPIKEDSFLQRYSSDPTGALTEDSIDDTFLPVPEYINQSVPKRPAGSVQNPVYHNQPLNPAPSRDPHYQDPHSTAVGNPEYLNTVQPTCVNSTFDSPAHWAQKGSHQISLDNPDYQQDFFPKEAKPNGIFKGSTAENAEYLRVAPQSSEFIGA
T2 sequence (P00533 25-1210 T790M/C797S/L858R): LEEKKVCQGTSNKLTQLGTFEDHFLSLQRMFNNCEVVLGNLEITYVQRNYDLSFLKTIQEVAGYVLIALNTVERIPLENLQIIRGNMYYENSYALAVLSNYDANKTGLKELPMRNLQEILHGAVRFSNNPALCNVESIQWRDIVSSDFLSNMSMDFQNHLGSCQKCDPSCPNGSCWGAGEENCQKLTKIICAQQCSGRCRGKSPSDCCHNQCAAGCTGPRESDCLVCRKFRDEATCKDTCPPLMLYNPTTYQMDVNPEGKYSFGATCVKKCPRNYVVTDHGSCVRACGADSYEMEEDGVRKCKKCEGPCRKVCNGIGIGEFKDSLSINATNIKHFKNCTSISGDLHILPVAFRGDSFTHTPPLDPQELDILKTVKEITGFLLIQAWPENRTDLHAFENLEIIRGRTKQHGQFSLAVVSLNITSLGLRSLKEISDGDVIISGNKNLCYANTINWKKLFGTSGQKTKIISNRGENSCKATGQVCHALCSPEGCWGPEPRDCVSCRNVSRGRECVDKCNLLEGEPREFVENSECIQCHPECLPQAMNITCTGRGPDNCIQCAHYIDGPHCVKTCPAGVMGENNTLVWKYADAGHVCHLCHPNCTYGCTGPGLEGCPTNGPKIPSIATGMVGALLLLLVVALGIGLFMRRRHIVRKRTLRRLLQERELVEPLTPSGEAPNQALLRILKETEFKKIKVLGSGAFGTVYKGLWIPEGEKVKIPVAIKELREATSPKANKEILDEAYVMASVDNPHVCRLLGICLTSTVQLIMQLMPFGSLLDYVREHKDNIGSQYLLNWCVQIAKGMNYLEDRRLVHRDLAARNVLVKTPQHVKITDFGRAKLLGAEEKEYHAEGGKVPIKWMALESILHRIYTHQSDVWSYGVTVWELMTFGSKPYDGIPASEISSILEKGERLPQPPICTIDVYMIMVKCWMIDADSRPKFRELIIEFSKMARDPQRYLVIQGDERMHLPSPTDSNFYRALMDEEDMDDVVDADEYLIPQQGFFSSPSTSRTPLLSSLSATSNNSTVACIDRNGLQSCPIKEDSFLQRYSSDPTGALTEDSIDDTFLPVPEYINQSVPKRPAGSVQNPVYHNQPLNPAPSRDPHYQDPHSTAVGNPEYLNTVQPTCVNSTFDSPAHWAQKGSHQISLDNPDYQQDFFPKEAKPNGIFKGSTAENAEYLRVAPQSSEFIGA
T1 sequence (P00533 25-1210): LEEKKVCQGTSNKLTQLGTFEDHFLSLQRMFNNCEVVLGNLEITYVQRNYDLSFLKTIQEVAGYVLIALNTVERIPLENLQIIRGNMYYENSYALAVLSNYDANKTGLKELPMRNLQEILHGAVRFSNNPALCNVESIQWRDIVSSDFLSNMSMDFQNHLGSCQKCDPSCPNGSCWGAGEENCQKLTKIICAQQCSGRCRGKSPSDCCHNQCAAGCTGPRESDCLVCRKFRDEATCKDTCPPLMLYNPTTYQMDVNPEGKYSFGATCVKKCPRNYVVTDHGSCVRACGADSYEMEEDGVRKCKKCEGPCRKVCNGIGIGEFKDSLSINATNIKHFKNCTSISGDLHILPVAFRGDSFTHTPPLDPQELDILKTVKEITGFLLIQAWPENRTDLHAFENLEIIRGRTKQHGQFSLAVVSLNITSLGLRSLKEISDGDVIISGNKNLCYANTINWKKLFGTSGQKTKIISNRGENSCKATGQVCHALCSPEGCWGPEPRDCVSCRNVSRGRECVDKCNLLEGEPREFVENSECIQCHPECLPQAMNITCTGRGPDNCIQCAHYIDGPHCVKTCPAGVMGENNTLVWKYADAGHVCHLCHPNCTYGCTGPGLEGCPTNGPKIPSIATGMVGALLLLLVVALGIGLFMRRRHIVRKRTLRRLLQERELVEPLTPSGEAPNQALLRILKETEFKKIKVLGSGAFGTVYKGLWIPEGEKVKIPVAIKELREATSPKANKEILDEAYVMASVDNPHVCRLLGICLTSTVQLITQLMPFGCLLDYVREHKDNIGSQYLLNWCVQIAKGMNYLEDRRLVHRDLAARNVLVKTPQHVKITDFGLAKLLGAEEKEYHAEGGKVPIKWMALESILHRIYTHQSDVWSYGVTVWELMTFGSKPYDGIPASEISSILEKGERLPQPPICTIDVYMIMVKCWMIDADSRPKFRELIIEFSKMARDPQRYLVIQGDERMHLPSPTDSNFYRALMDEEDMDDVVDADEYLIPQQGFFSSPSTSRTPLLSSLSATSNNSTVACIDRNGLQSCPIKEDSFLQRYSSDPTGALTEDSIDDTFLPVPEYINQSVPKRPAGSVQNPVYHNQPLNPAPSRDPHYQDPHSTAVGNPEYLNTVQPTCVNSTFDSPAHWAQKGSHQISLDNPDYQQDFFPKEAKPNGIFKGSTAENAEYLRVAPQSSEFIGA

For `COc1cc(N2CCOCC2)c(-c2cnn(C)c2)cc1Nc1ncc(Br)c(Nc2cc(C)c3nccnc3c2P(C)(C)=O)n1` [Compound 33, (6-((5-bromo-2-((2-methoxy-5-(1-methyl-1H-pyrazol-4-yl)-4-morpholinylphenyl)amino)pyrimidin-4-yl)amino)-8-methylquinoxalin-5-yl)dimethylphosphine oxide], the results for the IC50 in assay [1], in assay [2] and in assay [3] were 50.2 nM, 0.26 nM and 1420 nM, respectively. Moreover, the GI50 amounted to 10.1 nM in assay [4] and 32.5 nM in assay [5].
With `COc1cc(S(=O)(=O)N(C)C)c(-c2cnn(C)c2)cc1Nc1ncc(Br)c(Nc2ccc3nccnc3c2P(C)(C)=O)n1` [Compound 35, 4-((5-bromo-4-((5-(dimethylphosphoryl)quinoxalin-6-yl)amino)pyrimidin-2-yl)amino)-5-methoxy-N,N-dimethyl-2-(1-methyl-1H-pyrazol-4-yl)benzenesulfonamide], the results for the IC50 in assay [1], in assay [2] and in assay [3] were 384 nM, 11.9 nM and 752 nM, respectively. The GI50 in assay [4] was found to be 93.2 nM; in assay [5] it was 327 nM.
Turning to `COc1cc(N2CCOCC2)c(-c2cnn(C)c2)cc1Nc1ncc(C2CC2)c(Nc2ccc3nccnc3c2P(C)(C)=O)n1` [Compound 41, (6-((5-cyclopropyl-2-((2-methoxy-5-(1-methyl-1H-pyrazol-4-yl)-4-morpholinylphenyl)amino)pyrimidin-4-yl)amino)quinoxalin-5-yl)dimethylphosphine oxide], the IC50 in assay [1] is 21.1 nM; in assay [2], 0.31 nM; in assay [3] it was 371 nM. In addition, the values for the GI50 in assay [4] and in assay [5] were 8.64 nM and 34.5 nM, respectively.
For `COc1cc(N2CCOCC2)c(-c2cnn(C)c2)cc1Nc1nccc(Nc2ccc3nccnc3c2P(C)(C)=O)n1` [Compound 42, (6-((2-((2-methoxy-5-(1-methyl-1H-pyrazol-4-yl)-4-morpholinophenyl)amino)pyrimidin-4-yl)amino)quinoxalin-5-yl)dimethylphosphine oxide], the figures for the IC50 in assay [1], in assay [2] and in assay [3] were 166 nM, 1.24 nM and no less than 5000 nM, respectively. Moreover, the GI50 stood at 6.76 nM in assay [4] and 69.2 nM in assay [5].
In the case of `COc1cc(C2CCOCC2)c(-c2cnn(C)c2)cc1Nc1ncc(Br)c(Nc2ccc3nccnc3c2P(C)(C)=O)n1` [Compound 69], the IC50 in assay [1] was 17.4 nM; in assay [2], 0.17 nM; in assay [3] it was 303 nM. For the same molecule, the GI50 in assay [4] was 5.91 nM; in assay [5], 19.2 nM.
`COc1cc(N2CCOCC2)c(-c2cnn(C)c2)cc1Nc1ncc(Br)c(Nc2cc3c(cc2P(C)(C)=O)CC3)n1` [Compound 79, (4-((5-bromo-2-((2-methoxy-5-(1-methyl-1H-pyrazol-4-yl)-4-morpholinylphenyl)amino)pyrimidin-4-yl)amino)bicyclo[4.2.0]octa-1,3,5-trien-3-yl)dimethylphosphine oxide]: the IC50 in assay [1] was determined as 29.9 nM; in assay [2], 0.45 nM; in assay [3] it was 633 nM. In addition, the values for the GI50 in assay [4] and in assay [5] were 9.89 nM and 13.5 nM, respectively.
As for `COc1cc(N2CCOCC2)c(-c2cnn(C)c2)cc1Nc1ncc(Br)c(Nc2ccccc2NS(C)(=O)=O)n1` [Compound 80], the IC50 in assay [1] worked out at 8.85 nM; in assay [2] it was 0.01 nM; in assay [3], 415 nM. Moreover, the figures for the GI50 in assay [4] and in assay [5] were 5.37 nM and 10.1 nM, respectively.
As to `Cn1cc(-c2cc(Nc3ncc(Br)c(Nc4ccc5nccnc5c4P(C)(C)=O)n3)c3c(c2)OCO3)cn1` [Compound 82, (6-((5-bromo-2-((6-(1-methyl-1H-pyrazol-4-yl)benzo[d][1,3]dioxol-4-yl)amino)pyrimidin-4-yl)amino)quinoxalin-5-yl)dimethylphosphine oxide], the values for the IC50 in assay [1], in assay [2] and in assay [3] were 18.2 nM, 0.28 nM and 180 nM, respectively. For the same molecule, the GI50 in assay [4] amounted to 7.85 nM; in assay [5], 21.7 nM.
With `COc1cc(N2CCN(C(C)C)CC2)c(-c2cnn(C)c2)cc1Nc1ncc(Br)c(Nc2ccc3nccnc3c2P(C)(C)=O)n1` [Compound 88, (6-((5-bromo-2-((4-(4-isopropylpiperazin-1-yl)-2-methoxy-5-(1-methyl-1H-pyrazol-4-yl)phenyl)amino)pyrimidin-4-yl)amino)quinoxalin-5-yl)dimethylphosphine oxide], the values for the IC50 in assay [1], in assay [2] and in assay [3] were 4.26 nM, 0.09 nM and 40.9 nM, respectively. In addition, the GI50 in assay [4] came out at 2.18 nM; in assay [5], 4.45 nM.
In the case of `COc1cc(N2CCOCC2)c(-c2cnn(C)c2)cc1Nc1nc(Nc2ccccc2P(C)(C)=O)c2ccccc2n1` [compound 3], the IC50 in assay [1] worked out at 1250 nM; in assay [2] it was 22 nM; in assay [3] it was 2240 nM. Also, the GI50 in assay [4] was 281 nM; in assay [5] it was 444 nM.
On to `COc1cc(N2CCOCC2)c(-c2cnn(C)c2)cc1Nc1ncc(C)c(Nc2ccc3nccnc3c2P(C)(C)=O)n1` [compound 4], for which the figures for the IC50 in assay [1], in assay [2] and in assay [3] were 1.41 nM, 0.28 nM and 194 nM, respectively. For the same molecule, the GI50 in assay [4] was 2.38 nM; in assay [5], 13.6 nM.
For `COc1ccc(-c2cnn(C)c2)cc1Nc1ncc(Br)c(Nc2ccc3nccnc3c2P(C)(C)=O)n1` [compound 5], the IC50 in assay [1] amounted to 8.13 nM; in assay [2], 0.03 nM; in assay [3] it was 140 nM. Besides, the GI50 was 3.71 nM in assay [4] and 12.7 nM in assay [5].
`COc1ccc(-c2cnoc2)cc1Nc1ncc(Br)c(Nc2ccc3nccnc3c2P(C)(C)=O)n1` [compound 9]: the IC50 in assay [1] is 75.7 nM; in assay [2] it was 0.88 nM; in assay [3], 450 nM. Moreover, the values for the GI50 in assay [4] and in assay [5] were 55 nM and 110 nM, respectively.
The matching figures for `COc1cc(N2CCC(N(C)C)C2)c(-c2cnn(C)c2)cc1Nc1ncc(Br)c(Nc2ccc3nccnc3c2P(C)(C)=O)n1` (centres unmarked) [compound 10]: 4.55 nM, 0.1 nM, 47 nM, 6.06 nM and 10.7 nM.
For `COc1cc(N2CC3CC2CN3C)c(-c2cnn(C)c2)cc1Nc1ncc(Br)c(Nc2ccc3nccnc3c2P(C)(C)=O)n1` (centres unmarked) [compound 11], in that order: 12.1 nM, 0.07 nM, 159 nM, 83.4 nM and 224 nM.
On to `COc1cc(N2CCCN(C)CC2)c(-c2cnn(C)c2)cc1Nc1ncc(Br)c(Nc2ccc3nccnc3c2P(C)(C)=O)n1` [compound 12], for which the IC50 in assay [1] was 1.59 nM; in assay [2], 0.05 nM; in assay [3] it was 76.1 nM. For the same molecule, the results for the GI50 in assay [4] and in assay [5] were 6.32 nM and 45.9 nM, respectively.
On to `COc1cc(N2CCN(C(C)=O)CC2)c(-c2cnn(C)c2)cc1Nc1ncc(Br)c(Nc2ccc3nccnc3c2P(C)(C)=O)n1` [compound 14], for which the IC50 was 1.06 nM in assay [1], 0.15 nM in assay [2] and 150 nM in assay [3]. Further, the GI50 in assay [4] was 5.98 nM; in assay [5], 13.6 nM.
For `COc1cc(N2CCC3(CC2)COC3)c(-c2cnn(C)c2)cc1Nc1ncc(Br)c(Nc2ccc3nccnc3c2P(C)(C)=O)n1` [compound 15], the figures for the IC50 in assay [1], in assay [2] and in assay [3] were 12.2 nM, less than 0.05 nM and 177 nM, respectively. For the same molecule, the figures for the GI50 in assay [4] and in assay [5] were 4.62 nM and 15.6 nM, respectively.
For `COc1cc(N2CCC(N3CCN(C)CC3)CC2)c(-c2cnn(C)c2)cc1Nc1ncc(Br)c(Nc2ccc3nccnc3c2P(C)(C)=O)n1` [compound 18], in that order: 1.26 nM, 0.08 nM, 45.4 nM, 2.87 nM and 20.9 nM.
With `COc1cc(N2CCOCC2)c(-c2cnoc2)cc1Nc1ncc(Br)c(Nc2ccc3nccnc3c2P(C)(C)=O)n1` [compound 19], the results for the IC50 in assay [1], in assay [2] and in assay [3] were 39.3 nM, 0.17 nM and 488 nM, respectively. Moreover, the GI50 in assay [4] worked out at 6.71 nM; in assay [5] it was 68.8 nM.
For `COc1ccc(-n2cccn2)cc1Nc1ncc(Br)c(Nc2ccc3nccnc3c2P(C)(C)=O)n1` [compound 20], in that order: 179 nM, 9.21 nM, 1590 nM, 277 nM and 629 nM.
Regarding `COc1cc(N(C)CCN(C)C)c(-c2cnn(C)c2)cc1Nc1ncc(Br)c(Nc2ccc3nccnc3c2P(C)(C)=O)n1` [compound 21], the IC50 in assay [1] is 1.57 nM; in assay [2], 0.06 nM; in assay [3] it was 63.9 nM. In addition, the GI50 in assay [4] came to 4.03 nM; in assay [5] it was 18.1 nM.
